From US20260262643A1, “HERBICIDAL BENZOXAZINES” (FMC CORPORATION, priority 2022, published 2026)

Experiments:
ryegrass, Italian [1] = assay: Test A postemergence; format: in vivo, Lolium multiflorum
Method in brief: (§1)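 Plants were grown in loam and sand and treated preemergence or postemergence (one- to two-leaf stage, 2–10 cm) with compound in solvent plus surfactant. Response was scored against untreated controls after 10 greenhouse days, where 0 means no effect and 100 complete control.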

kochia [2] = assay: Test A postemergence; format: in vivo, Bassia scoparia
Method in brief: as §1

kochia [3] = assay: Test A preemergence; format: in vivo, Bassia scoparia
Method in brief: as §1

ragweed [4] = assay: Test A preemergence; format: in vivo, Ambrosia artemisiifolia
Method in brief: as §1

ryegrass, Italian [5] = assay: Test A preemergence; format: in vivo, Lolium multiflorum
Method in brief: as §1

galium = assay: Test A postemergence; format: in vivo, Galium aparine
Method in brief: as §1

rice = assay: Test B flooded paddy test; format: in vivo, Oryza sativa; details: 250 g ai/ha, Flood, 13 days, 0 to 100 scale (0 no effect, 100 complete control)
Method in brief: (§2)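 Two-leaf plants, 3 cm flood, in-water application, 13-day greenhouse hold, visual 0–100 rating vs untreated checks.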

blackgrass = assay: Test A postemergence; format: in vivo, Alopecurus myosuroides
Method in brief: as §1

barnyardgrass [6] = assay: Test A preemergence; format: in vivo, Echinochloa crusgalli
Method in brief: as §1

foxtail, giant [7] = assay: Test A preemergence; format: in vivo, Setaria faberi
Method in brief: as §1

barnyardgrass [8] = assay: Test A postemergence; format: in vivo, Echinochloa crusgalli
Method in brief: as §1

Pigweed, Redroot [9] = assay: Test A preemergence; format: in vivo, Amaranthus retroflexus
Method in brief: as §1

Pigweed, Redroot [10] = assay: Test A postemergence; format: in vivo, Amaranthus retroflexus
Method in brief: as §1

ducksalad = assay: Test B flooded paddy test; format: in vivo, Heteranthera limosa; details: 250 g ai/ha, Flood, 13 days, 0 to 100 scale (0 no effect, 100 complete control)
Method in brief: as §2

sedge, umbrella = assay: Test B flooded paddy test; format: in vivo, Cyperus difformis; details: 250 g ai/ha, Flood, 13 days, 0 to 100 scale (0 no effect, 100 complete control)
Method in brief: as §2

ragweed [11] = assay: Test A postemergence; format: in vivo, Ambrosia artemisiifolia
Method in brief: as §1

corn = assay: Test A postemergence; format: in vivo, Zea mays
Method in brief: as §1

foxtail, giant [12] = assay: Test A postemergence; format: in vivo, Setaria faberi
Method in brief: as §1

barnyardgrass [13] = assay: Test B flooded paddy test; format: in vivo, Echinochloa crus-galli; details: 250 g ai/ha, Flood, 13 days, 0 to 100 scale (0 no effect, 100 complete control)
Method in brief: as §2

wheat = assay: Test A postemergence; format: in vivo, Triticum aestivum
Method in brief: as §1

[14] = 125 g ai/ha, postemergence, 10 days, visual injury, 0 to 100 scale (0 no effect, 100 complete control)
[15] = 500 g ai/ha, Postemergence, 0 to 100 scale
[16] = 125 g ai/ha, visual injury after 10 days, 0 to 100 scale, 0 is no effect, 100 is complete control
[17] = 500 g ai/ha, 0 to 100 scale (0 no effect, 100 complete control), 10 days

CCC1CN(C(=O)c2cncc(-n3cncn3)c2)c2cccc(Cl)c2O1 (racemic) [Compound 6]
10: Plant response rating, Barnyardgrass (barnyardgrass [8]; [15]) | Plant response rating, Foxtail, Giant (foxtail, giant [12]; [15])
60: Plant response rating, Foxtail, Giant (foxtail, giant [7]; [17])
20: Plant response rating, Ryegrass, Italian (ryegrass, Italian [5]; [16]) | Plant response rating, Pigweed, Redroot (Pigweed, Redroot [9]; [17])
30: Plant response rating, Ragweed (ragweed [4]; [17]) | Plant response rating, Galium (galium; [15]) | Plant response rating, Pigweed, Redroot (Pigweed, Redroot [10]; [15])
0: Plant response rating, Kochia (kochia [2]; [14]) | Plant response rating, Kochia (kochia [2]; [15]) | Plant response rating, Kochia (kochia [3]; [16]) | Plant response rating, Kochia (kochia [3]; [17]) | Plant response rating, Ragweed (ragweed [4]; [16]) | Plant response rating, Galium (galium; [14]) | Plant response rating, Rice (rice) | Plant response rating, Blackgrass (blackgrass; [14]) | Plant response rating, Blackgrass (blackgrass; [15]) | Plant response rating, Barnyardgrass (barnyardgrass [6]; [16]) | Plant response rating, Barnyardgrass (barnyardgrass [6]; [17]) | Plant response rating, Foxtail, Giant (foxtail, giant [7]; [16]) | Plant response rating, Barnyardgrass (barnyardgrass [8]; [14]) | Plant response rating, Pigweed, Redroot (Pigweed, Redroot [9]; [16]) | Plant response rating, Pigweed, Redroot (Pigweed, Redroot [10]; [14]) | Plant response rating, Ducksalad (ducksalad) | Plant response rating, Sedge, Umbrella (sedge, umbrella) | Plant response rating, Ragweed (ragweed [11]; [14]) | Plant response rating, Ragweed (ragweed [11]; [15]) | Plant response rating, Corn (corn; [14]) | Plant response rating, Corn (corn; [15]) | Plant response rating, Foxtail, Giant (foxtail, giant [12]; [14]) | Plant response rating, Barnyardgrass (barnyardgrass [13]) | Plant response rating, Wheat (wheat; [14]) | Plant response rating, Wheat (wheat; [15])
50: Plant response rating, Ryegrass, Italian (ryegrass, Italian [1]; [14]) | Plant response rating, Ryegrass, Italian (ryegrass, Italian [5]; [17])
40: Plant response rating, Ryegrass, Italian (ryegrass, Italian [1]; [15])
